Data reported in ChEMBL document CHEMBL1201862, “PubChem BioAssay data set” (2004).
Active and inactive are the calls of the source. Unless noted, no cut-off for these calls is given here.

Assays:
cells = conditions: HEK293
[1] = Dd2 parasite growth inhibition in erythrocytes – SYBR Green, dry powder samples, set 4, dose response (AID 1159572); assay type: functional, cell-based
[2] = target: Metabotropic glutamate receptor 7 (Homo sapiens, UniProt Q14831); test: potentiation of glutamate EC20 at mGlu7 – cell-based, calcium mobilization, Galpha15, dose response (AID 743384); assay type: functional
[3] = rise of 4N DNA cells, HeLa – IC50, dose response (AID 1117351); assay type: functional, cell-based
[4] = rise of 2N DNA cells, HeLa – IC50, dose response (AID 1117349); assay type: functional, cell-based
[5] = IC50 of insulin release inhibition, rat insulinoma INS-1E line, 5 mM glucose, cell-based (AID 1117331); assay type: functional

Chain of Metabotropic glutamate receptor 7 (Q14831 whole entry): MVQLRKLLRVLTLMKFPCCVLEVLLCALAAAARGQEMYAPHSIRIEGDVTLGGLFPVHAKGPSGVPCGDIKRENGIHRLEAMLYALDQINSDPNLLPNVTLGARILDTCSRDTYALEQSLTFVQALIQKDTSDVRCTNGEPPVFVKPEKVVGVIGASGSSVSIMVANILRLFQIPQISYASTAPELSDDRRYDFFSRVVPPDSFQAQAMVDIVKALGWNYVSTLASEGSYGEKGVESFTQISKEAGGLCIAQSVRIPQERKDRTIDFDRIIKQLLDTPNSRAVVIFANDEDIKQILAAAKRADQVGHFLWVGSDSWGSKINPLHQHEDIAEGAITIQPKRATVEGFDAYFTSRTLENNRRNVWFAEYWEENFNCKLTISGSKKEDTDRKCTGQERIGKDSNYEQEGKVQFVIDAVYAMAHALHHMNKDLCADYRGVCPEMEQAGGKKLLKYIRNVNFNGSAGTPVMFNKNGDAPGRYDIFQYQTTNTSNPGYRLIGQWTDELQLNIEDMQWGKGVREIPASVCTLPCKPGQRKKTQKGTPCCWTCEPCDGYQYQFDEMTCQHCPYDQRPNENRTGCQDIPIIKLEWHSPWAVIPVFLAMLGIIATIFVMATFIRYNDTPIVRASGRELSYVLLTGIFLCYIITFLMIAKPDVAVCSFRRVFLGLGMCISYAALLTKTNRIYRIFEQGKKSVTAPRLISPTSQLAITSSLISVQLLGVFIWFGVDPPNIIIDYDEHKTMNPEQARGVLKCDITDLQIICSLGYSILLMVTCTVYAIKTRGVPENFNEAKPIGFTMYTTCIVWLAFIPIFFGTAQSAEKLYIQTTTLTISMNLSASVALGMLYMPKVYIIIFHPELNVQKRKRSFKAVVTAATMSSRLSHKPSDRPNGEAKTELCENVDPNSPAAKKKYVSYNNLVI

With COc1cc(C)ccc1OCCn1cnc2ccccc21 the AC50 (cells) was > 52 µM (inactive).
For COc1ccc2c3c([nH]c2c1)[C@H](CO)N(C(C)=O)CC31CCN(C(C)=O)CC1, the AC50 [1] was 16.5 µM (active).
In the case of CC(=O)Nc1ccc(SCC(=O)c2cc(C)n(-c3ccc(S(N)(=O)=O)cc3)c2C)cc1, the EC50 [2] is reported as 10 µM (active).
With CC(C)(C)C(=O)OCOP(=O)(COCCn1cnc2c(N)ncnc21)OCOC(=O)C(C)(C)C [ADEFOVIR DIPIVOXIL] the IC50 [3] was > 10 µM (inactive) and the IC50 [4] was > 10 µM (inactive).
With Nc1cc(N2CCCCC2)nc(N)[n+]1[O-] [MINOXIDIL] the IC50 [5] was > 33.3 µM (inactive).
